Source: ChEMBL document CHEMBL1240454, “1,3-Dioxolane-based ligands incorporating a lactam or imide moiety: structure-affinity/activity relationship at alpha1-adrenoceptor subtypes and at 5-HT1A receptors” (Eur J Med Chem, 2010)

molecular target: T1, Alpha-1D adrenergic receptor (Rattus norvegicus) (UniProt P23944); assay: Antagonist activity at adrenergic Alpha-1D receptor in Wistar rat thoracic aorta assessed as inhibition of (-)-norepinephrine-induced vasocontraction treated 30 mins before (-)norepinephrine challenge; assay type: functional, tissue-based; conditions: not given
T1 sequence (whole entry): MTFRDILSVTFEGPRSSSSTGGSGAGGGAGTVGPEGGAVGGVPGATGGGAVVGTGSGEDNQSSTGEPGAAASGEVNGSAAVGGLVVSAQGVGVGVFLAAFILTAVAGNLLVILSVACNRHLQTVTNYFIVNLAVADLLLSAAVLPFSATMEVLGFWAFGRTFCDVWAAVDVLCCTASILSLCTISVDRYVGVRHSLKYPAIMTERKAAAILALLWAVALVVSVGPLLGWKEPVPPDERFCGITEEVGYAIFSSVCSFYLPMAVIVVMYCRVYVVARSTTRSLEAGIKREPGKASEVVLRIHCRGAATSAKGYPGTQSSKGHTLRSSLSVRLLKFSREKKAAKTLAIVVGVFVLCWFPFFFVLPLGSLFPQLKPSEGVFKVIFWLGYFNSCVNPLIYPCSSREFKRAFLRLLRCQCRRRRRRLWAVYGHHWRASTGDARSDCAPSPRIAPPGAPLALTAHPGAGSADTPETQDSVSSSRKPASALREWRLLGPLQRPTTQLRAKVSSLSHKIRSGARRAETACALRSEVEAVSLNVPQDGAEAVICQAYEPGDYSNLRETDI

Compound	pKb
COc1ccccc1N1CCN(C[C@@H]2CO[C@@](CN3C(=O)CCC3=O)(c3ccccc3)O2)CC1 (relative stereo)	7.78
COc1ccccc1N1CCN(C[C@H]2CO[C@@](CN3C(=O)CCCC3=O)(c3ccccc3)O2)CC1 (relative stereo)	6.19
COc1ccccc1N1CCN(C[C@H]2CO[C@@](CN3C(=O)CC4(CCCC4)CC3=O)(c3ccccc3)O2)CC1 (relative stereo)	6.78

Other lines, results leading:

pKb	Compound
7.57	COc1ccccc1N1CCN(C[C@@H]2CO[C@@](CN3C(=O)CCCC3=O)(c3ccccc3)O2)CC1 (relative stereo)
6.42	COc1ccccc1N1CCN(C[C@H]2CO[C@@](CN3C(=O)CCC3=O)(c3ccccc3)O2)CC1 (relative stereo)
7.57	COc1ccccc1N1CCN(C[C@H]2CO[C@@](CN3CCCCCC3=O)(c3ccccc3)O2)CC1 (relative stereo)
7.75	COc1ccccc1N1CCN(C[C@@H]2CO[C@@](CN3CCCCCC3=O)(c3ccccc3)O2)CC1 (relative stereo)

organism: Rattus norvegicus; assay: Selectivity for adrenergic Alpha-1B receptor in Wistar rat spleen over adrenergic alpha1A receptor in Wistar rat prostatic vas deferens; assay type: tissue-based; conditions: not given

Compound	Selectivity ratio
COc1ccccc1N1CCN(C[C@@H]2CO[C@@](CN3C(=O)CCC3=O)(c3ccccc3)O2)CC1 (relative stereo)	2
COc1ccccc1N1CCN(C[C@H]2CO[C@@](CN3C(=O)CCCC3=O)(c3ccccc3)O2)CC1 (relative stereo)	1
COc1ccccc1N1CCN(C[C@H]2CO[C@@](CN3C(=O)CC4(CCCC4)CC3=O)(c3ccccc3)O2)CC1 (relative stereo)	3

Second part, the compound after the results:

Selectivity ratio	Compound
1	COc1ccccc1N1CCN(C[C@@H]2CO[C@@](CN3C(=O)CCCC3=O)(c3ccccc3)O2)CC1 (relative stereo)
3	COc1ccccc1N1CCN(C[C@H]2CO[C@@](CN3C(=O)CCC3=O)(c3ccccc3)O2)CC1 (relative stereo)
4	COc1ccccc1N1CCN(C[C@H]2CO[C@@](CN3CCCCCC3=O)(c3ccccc3)O2)CC1 (relative stereo)
0.1	COc1ccccc1N1CCN(C[C@@H]2CO[C@@](CN3CCCCCC3=O)(c3ccccc3)O2)CC1 (relative stereo)

organism: Rattus norvegicus; assay: Selectivity for adrenergic alpha1A receptor in Wistar rat prostatic vas deferens over adrenergic Alpha-1D receptor in Wistar rat thoracic aorta; assay type: tissue-based; conditions: not given

Compound	Selectivity ratio
COc1ccccc1N1CCN(C[C@H]2CO[C@@](CN3CCCCCC3=O)(c3ccccc3)O2)CC1 (relative stereo)	0.04
COc1ccccc1N1CCN(C[C@@H]2CO[C@@](CN3CCCCCC3=O)(c3ccccc3)O2)CC1 (relative stereo)	4
COc1ccccc1N1CCN(C[C@H]2CO[C@@](CN3C(=O)CCC3=O)(c3ccccc3)O2)CC1 (relative stereo)	0.1
COc1ccccc1N1CCN(C[C@@H]2CO[C@@](CN3C(=O)CCC3=O)(c3ccccc3)O2)CC1 (relative stereo)	3
COc1ccccc1N1CCN(C[C@H]2CO[C@@](CN3C(=O)CCCC3=O)(c3ccccc3)O2)CC1 (relative stereo)	0.1
COc1ccccc1N1CCN(C[C@@H]2CO[C@@](CN3C(=O)CCCC3=O)(c3ccccc3)O2)CC1 (relative stereo)	2
COc1ccccc1N1CCN(C[C@H]2CO[C@@](CN3C(=O)CC4(CCCC4)CC3=O)(c3ccccc3)O2)CC1 (relative stereo)	0.1

molecular target: T2, 5-hydroxytryptamine receptor 1A (Homo sapiens) (UniProt P08908); assay: Agonist activity at human cloned 5HT1A receptor expressed in human HeLa cells assessed as stimulation of [35S]GTPgammaS binding after 20 mins by liquid scintillation counting; assay type: functional, cell-based; conditions: not given
T2 sequence (whole entry): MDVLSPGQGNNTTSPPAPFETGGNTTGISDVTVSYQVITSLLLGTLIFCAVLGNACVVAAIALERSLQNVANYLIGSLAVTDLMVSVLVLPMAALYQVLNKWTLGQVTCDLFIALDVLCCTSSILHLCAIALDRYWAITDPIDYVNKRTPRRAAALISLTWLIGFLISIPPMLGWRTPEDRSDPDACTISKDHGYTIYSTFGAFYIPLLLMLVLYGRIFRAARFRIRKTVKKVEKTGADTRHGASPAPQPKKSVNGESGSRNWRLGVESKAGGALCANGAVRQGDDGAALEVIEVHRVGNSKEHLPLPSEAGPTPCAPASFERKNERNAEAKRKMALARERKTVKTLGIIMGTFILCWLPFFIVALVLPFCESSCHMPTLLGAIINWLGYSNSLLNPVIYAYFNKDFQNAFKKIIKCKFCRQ

Compound	pD2
COc1ccccc1N1CCN(C[C@H]2CO[C@@](CN3C(=O)CCCC3=O)(c3ccccc3)O2)CC1 (relative stereo)	7.23
COc1ccccc1N1CCN(C[C@H]2CO[C@@](CN3C(=O)CC4(CCCC4)CC3=O)(c3ccccc3)O2)CC1 (relative stereo)	7.8

The next lines start with the values.

pD2	Compound
7.05	COc1ccccc1N1CCN(C[C@H]2CO[C@@](CN3C(=O)CCC3=O)(c3ccccc3)O2)CC1 (relative stereo)
6.57	COc1ccccc1N1CCN(C[C@@H]2CO[C@@](CN3CCCCCC3=O)(c3ccccc3)O2)CC1 (relative stereo)

molecular target: T2, 5-hydroxytryptamine receptor 1A (Homo sapiens); assay: Agonist activity at human cloned 5HT1A receptor expressed in human HeLa cells assessed as stimulation of [35S]GTPgammaS binding after 20 mins by liquid scintillation counting relative to maximal 5HT response; assay type: functional, cell-based; conditions: not given

Compound	Emax [%]
COc1ccccc1N1CCN(C[C@H]2CO[C@@](CN3C(=O)CCCC3=O)(c3ccccc3)O2)CC1 (relative stereo)	34
COc1ccccc1N1CCN(C[C@H]2CO[C@@](CN3C(=O)CC4(CCCC4)CC3=O)(c3ccccc3)O2)CC1 (relative stereo)	49

More lines, now with the values ahead:

Emax [%]	Compound
45	COc1ccccc1N1CCN(C[C@H]2CO[C@@](CN3C(=O)CCC3=O)(c3ccccc3)O2)CC1 (relative stereo)
39	COc1ccccc1N1CCN(C[C@@H]2CO[C@@](CN3CCCCCC3=O)(c3ccccc3)O2)CC1 (relative stereo)

molecular target: T3, Alpha-1B adrenergic receptor (Homo sapiens, UniProt P35368); conditions: not given
T3 sequence (P35368 whole entry): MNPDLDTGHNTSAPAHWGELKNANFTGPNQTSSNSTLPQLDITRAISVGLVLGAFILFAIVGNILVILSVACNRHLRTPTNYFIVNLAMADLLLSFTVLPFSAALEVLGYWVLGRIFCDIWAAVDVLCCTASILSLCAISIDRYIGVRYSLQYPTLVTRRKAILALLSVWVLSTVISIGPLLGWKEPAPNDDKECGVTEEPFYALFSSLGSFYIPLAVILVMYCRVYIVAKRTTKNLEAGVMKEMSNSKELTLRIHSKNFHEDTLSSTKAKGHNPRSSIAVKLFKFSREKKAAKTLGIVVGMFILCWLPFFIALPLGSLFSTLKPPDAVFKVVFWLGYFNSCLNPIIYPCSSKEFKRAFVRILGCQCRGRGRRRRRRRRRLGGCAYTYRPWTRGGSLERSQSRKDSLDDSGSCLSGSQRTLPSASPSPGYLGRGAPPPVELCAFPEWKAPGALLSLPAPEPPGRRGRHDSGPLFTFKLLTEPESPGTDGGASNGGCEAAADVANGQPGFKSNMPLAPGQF

Compound	Ki [µM]
COc1ccccc1N1CCN(C[C@@H]2CO[C@@](CN3C(=O)CCC3=O)(c3ccccc3)O2)CC1 (relative stereo)	0.224
COc1ccccc1N1CCN(C[C@H]2CO[C@@](CN3C(=O)CCCC3=O)(c3ccccc3)O2)CC1 (relative stereo)	0.0468
COc1ccccc1N1CCN(C[C@H]2CO[C@@](CN3C(=O)CC4(CCCC4)CC3=O)(c3ccccc3)O2)CC1 (relative stereo)	0.00933

More lines, in order of falling Ki, values ahead:

Ki [µM]	Compound
0.132	COc1ccccc1N1CCN(C[C@@H]2CO[C@@](CN3C(=O)CCCC3=O)(c3ccccc3)O2)CC1 (relative stereo)
0.0851	COc1ccccc1N1CCN(C[C@H]2CO[C@@](CN3C(=O)CCC3=O)(c3ccccc3)O2)CC1 (relative stereo)
0.0724	COc1ccccc1N1CCN(C[C@H]2CO[C@@](CN3CCCCCC3=O)(c3ccccc3)O2)CC1 (relative stereo)
0.0182	COc1ccccc1N1CCN(C[C@@H]2CO[C@@](CN3CCCCCC3=O)(c3ccccc3)O2)CC1 (relative stereo)

molecular target: T2, 5-hydroxytryptamine receptor 1A (Homo sapiens); conditions: HeLa

pKb	Compound
7.25	COc1ccccc1N1CCN(C[C@H]2CO[C@@](CN3CCCCCC3=O)(c3ccccc3)O2)CC1 (relative stereo)
